Patent US20150359886A1, “SYSTEM AND METHODS FOR NANOSTRUCTURE PROTECTED DELIVERY OF TREATMENT AGENT AND SELECTIVE RELEASE THEREOF” (priority 2012, published 2015)

Tests used:
L3.6 cells = type: cell-based; details: for cell death (killing) of pancreatic cancer cells: FIG. 2, single agents even at high doses, combination at relatively low dose; for concentration required for a comparable effect with the exogenously applied treatment: exogenously applied Taxol + C6-ceramide combination, no CNT carrier
Description: Human pancreatic cancer lines PANC-1, MIA PaCa-2 (MIA) and L3.6 cells culture, cell viability assay (MTT dye assay) and Western blots assay were performed as described in Cao, C., et al. Galpha(i1) and Galpha(i3) are required for epidermal growth factor-mediated activation of the Akt-mTORC1 pathway. Science signaling 2, ra17 (2009).
(§1) Accordingly, experiments were carried out to examine the magnitude of chemosensitization of C6-ceramide on Taxol in different cancer cell lines. The pancreatic cancer cell lines L3.6. PANC-1 and MIA PaCa-2 (MIA) cells were selected for this experiment.
Using same pancreatic cancer cells (L3.6), the inductive heating release was we next tested the on-commandinductive-heating release of the encapsulated chemotherapeutic agents (Taxol and C6-ceramide) from CNTs. The drug-loaded CNTs were added to L3.6 cells for 12 hours, allowing them to be taken up by the cells. The cells were then washed with fresh basal medium (DMEM) 5 times to remove residual CNTs from the media, and a 30 min a.c. magnetic field (25 kHz) was applied to these cells to release the encapsulated drugs (Taxol and C6-ceramide) present in CNTs within the cells. After 48 h, the release of the drugs was inferred and assessed by the degree of cell death.

MIA PaCa-2 (MIA) = experiment: Cell viability assay (MTT dye assay), MIA PaCa-2 pancreatic cancer cells; type: cell-based, Human; details: for cell death (killing) of pancreatic cancer cells: FIG. 2, single agents even at high doses, combination at relatively low dose
Description: (§2) Science signaling 2, ra17 (2009).
as §1, with “experiment. […] However, the side effects noted above remain a challenging problem in this combination regimen and calls for a new delivery method.” for “experiment.”

PANC-1 = experiment: Cell viability assay (MTT dye assay), PANC-1 pancreatic cancer cells; type: cell-based, Human; details: for cell death (killing) of pancreatic cancer cells: FIG. 2, single agents even at high doses, combination at relatively low dose
Description: as §2
as §1, with “experiment. […] However, the side effects noted above remain a challenging problem in this combination regimen and calls for a new delivery method.” for “experiment.”

[1] = sensitization of Taxol-induced cell death

SMILES	cell death (killing) of pancreatic cancer cells (L3.6 cells; L3.6)	concentration required for a comparable effect with the exogenously applied treatment (L3.6 cells)	cell death (killing) of pancreatic cancer cells (MIA PaCa-2 (MIA))	cell death (killing) of pancreatic cancer cells (PANC-1)	concentration needed to reach the chemosensitization effect (L3.6 cells; L3.6, sensitization of Taxol-induced cell death)	concentration needed to reach the chemosensitization effect (MIA PaCa-2 (MIA); [1])	concentration needed to reach the chemosensitization effect (PANC-1; [1])
CC(=O)O[C@H]1C(=O)[C@@]2(C)[C@H]([C@H](OC(=O)c3ccccc3)[C@]3(O)C[C@H](OC(=O)[C@H](O)[C@@H](NC(=O)c4ccccc4)c4ccccc4)C(C)=C1C3(C)C)[C@]1(OC(C)=O)CO[C@@H]1C[C@@H]2O [Taxol, Paclitaxel]	limited killing	3 µg/mL	limited killing	limited killing	–	–	–
CCCCCCCCCCCCC/C=C/[C@@H](O)[C@H](CO)NC(=O)CCCCC [C6-ceramide]	limited killing	10 µg/mL	limited killing	limited killing	5-10 micrograms per milliliter	5-10 micrograms per milliliter	5-10 micrograms per milliliter
